According to patent publication US20110136898A1, “TREATMENT OF RETINAL DEGENERATION” (UNIVERSITY COLLEGE CORK, NATIONAL UNIVERSITY OF IRELAND, …, priority 2008, published 2011):
“Also recorded” adds a separate entry of the source.

Legend:
photoreceptor cells [1] = experiment: Retinal explant culture, SNP induced apoptosis detected by TUNEL; format: cell-based, C57BL/6 mice; details: for Protection of photoreceptor cells from SNP induced apoptosis: retinal explants, TUNEL; for Protection of photoreceptor cells from SNP induced apoptosis / Protection of photoreceptor cells from SNP induced apoptosis at 25 μM: 300 μM SNP 24 h, 1 hour pre-treatment
[2] = Lipophilicity of BP derivatives; format: physicochemical; details: FIG. 4
Description: (§1) FIG. 4: Is a histogram of % protection afforded by a 25 μM concentration of each BP derivative BP1 to BP6 in photoreceptor cells as a function of the lipophilicity of each derivative. (P is a logarithmic value that indicates the lipophilicity of a compound).

photoreceptor cells [3] = experiment: SNP challenge in photoreceptor cells, protection by BP derivatives; format: cell-based
Description: FIG. 2: Is a histogram of results showing the effectiveness of a 25 μM concentration of each of the BP derivatives BP-1 to BP6 against increasing concentrations of SNP in photoreceptor cells. Error bars are +/−standard deviation-SD.
as §1

photoreceptor cells [4] = experiment: Light damage model in vivo, TUNEL; set-up: species or system albino balb/c mice; details: for Protection from light induced retinal damage (apoptosis of photoreceptors): 200 mg/kg IP, 1 hour pre-treatment, single injection
Description: FIG. 7: In this figure the study was extended from ex vivo cultures to the light damage model in vivo. In this acute model of retinal disease albino balb/c mice are exposed to excessive white light causing the photoreceptor cells to die by apoptosis. […] The protection extends to 48 hours with only a single injection of BP3.
FIG. 8 is a histogram of the results from FIG. 7. TUNEL positive cells in three independent retinae were counted. Counts were performed on the central 40× field of the outer nuclear layer (ONL) and graphed with error bars (+/−standard deviation-SD).
(§2) Apoptosis detection by Terminal deoxynucleotidyl transferase-mediated biotinylated UTP nick end labeling (TUNEL): Retinal explants were fixed in 10% neutral buffered formalin overnight at 4° C., followed by cryoprotection in 25% sucrose overnight at 4° C. Frozen sections (7 μm) were incubated with terminal deoxynucleotidyl transferase (MSC, Dublin, Republic of Ireland) and fluorescein-12-dUTP (Roche, Lewes, UK) according to manufacturers' instructions at 37° C. for 1 h. Sections were mounted and viewed under a fluorescence microscope (Leica DM LB2; Leica, Nussloch, Germany) using an FITC filter.
Light damage model: Balb/c mice were dark adapted for 18 h prior to exposure to constant light. Mice were injected intraperitoneally with the Active 1 hour prior to light damage. Immediately prior to light exposure their pupils were dilated with 0.5% cyclopentolate under red light. Retinal light damage was induced by exposure to 2 h of cool white fluorescent light at an illumination of 5000 lux. Following exposure to constant light, animals were placed in the dark for 24 h then killed immediately by cervical dislocation. TUNEL staining was performed as described above.

photoreceptor cells [5] = experiment: rd10 chronic model of retinal degeneration; format: in vivo, rd10 mouse
Text: In this model photoreceptor cells degenerate more slowly than the light model, over weeks rather than hours to days. Cell death is evident from postnatal day 18 (P18) and by P25 a significant loss of photoreceptor cell layers is observed. […] In this model, the central and peripheral retina degenerate at different rates. The loss of photoreceptors is greater in the central retina than the periphery between P18 and P25.
FIG. 10: The ONL comprises two types of cell; rod photoreceptors and cone photoreceptors. […] Rhodopsin is a protein specifically found in the outer segments (OS) of rod photoreceptors. […] Peanut agglutinin (PNA) is a lectin which binds to carbohydrates found in the outer membrane of cone photoreceptors but which are absent from rods.
Frozen sections (7 μm) were blocked with 0.1% bovine serum albumin (BSA) in 0.1% tween/PBS for 1 hour at room temperature. Sections were incubated with anti-rhodopsin antibody (LAB VISION Corporation, Fremont, Calif., USA) overnight at 4° C. Sections were washed and incubated with FITC conjugated secondary mouse antibody (Dako, Glostrup, Denmark) for 1 hour at room temperature. Following further washes, sections were mounted and viewed under a fluorescence microscope (Leica DM LB2; Leica, Nussloch, Germany) using a FITC filter.
Frozen sections (7 μm) were blocked with 0.1% bovine serum albumin (BSA) in 0.1% tween/PBS for 30 minutes at room temperature. Sections were incubated with rhodamine conjugated PNA (Invitrogen, Dun Laoghaire, Ireland) for 20 minutes at room temperature as per manufacturers' instructions. Sections were mounted and viewed under a fluorescence microscope (Leica DM LB2; Leica, Nussloch, Germany) using a TRITC filter.
(§3) Frozen sections (7 μm) were stained in Hematoxylin (Sigma, Dublin, Ireland) for 10 seconds followed by a 15 minute water wash and 2-3 dips in acid alcohol. Following further washing, sections were placed in a 2% sodium bicarbonate (Sigma, Dublin, Ireland) solution for 30 seconds then dehydrated through an alcohol gradient. Sections were cleared in Histoclear (Sigma, Dublin, Ireland) for 5 minutes then mouted in DPX (BDH, VWR International Ltd., Poole, England) and viewed under a light microscope (Leica DM LB2; Leica, Nussloch, Germany).
It is a better model of the slow progression of typical human autosomal recessive RP than the acute light model as photoreceptor cells are lost over a period of weeks rather than days. Loss of photoreceptors in the rd10 mouse begins at approximately 2 weeks of age, with the peak of photoreceptor death occurring at postnatal day (P) 25.

ganglion cells = experiment: NMDA-induced excitotoxicity, acute model of Glaucoma; format: in vivo, balb/c mice
Description: In this model intravitreal injection of 40 mM NMDA results in the progressive loss of ganglion cells from the ganglion cell layer (GCL), accompanied by a thinning of the inner plexiform layer (IPL) over time.
By 48 and 72 hours post excitotoxicity the eventual loss of cells of the ONL is evident.
FIG. 13 is a histogram of the data from FIG. 12.
as §2
as §3, with “Hematoxylin staining: Eyes were fixed in 10% neutral buffered formalin overnight at 4° C., followed by cryoprotection in 25% sucrose overnight at 4° C. Frozen” for “Frozen”
Intravitreal Injections: Adult balb/c mice were anaesthetised using an intraperitoneal injection of ketamine hydrochloride 35-50 mg/kg (Pharmacia, Corby, Northamptonshire, UK) and xylazine hydrochloride 5-10 mg/kg (Chanelle Pharmaceuticals, Loughrea, Co. Galway, Ireland), and animals were placed in the pronate position. […]

[6] = Stability of BP derivatives; format: physicochemical
[7] = 200 mg/kg 1 hour prior to 40 mM NMDA injection, 48 and 72 hours post insult

C#CC1(O)CC[C@H]2[C@@H]3CCC4=CC(=O)CC[C@@H]4[C@H]3CC[C@@]21CC (mixture of isomers) [norgestrel, reference compound]
Protection of photoreceptor cells from SNP induced apoptosis (photoreceptor cells [1]): protected

COc1cc2c(cc1OC(C)=O)CCC(C)(C)O2 [BP1]
Lipophilicity (P), rank order [2]: BP1<BP2<BP3=BP5=BP6<BP4

COc1cc2c(cc1OC(=O)C(C)(C)C)CCC(C)(C)O2 [BP2]
Lipophilicity (P), rank order [2]: BP1<BP2<BP3=BP5=BP6<BP4

CCCCC(C)C(=O)Oc1cc2c(cc1OC)OC(C)(C)CC2 (centres unmarked) [BP3]
Inhibition of apoptosis in retinal cells (photoreceptor cells [3]): inhibiting apoptosis
Protection of photoreceptor cells from SNP induced apoptosis at 25 μM (photoreceptor cells [1]; FIGS. 5 and 6): effective
Concentration at which BP3 is equally as effective, times lower than BP (photoreceptor cells [1]; SNP induced apoptosis, FIGS. 5 and 6): 10 times
Protection of photoreceptor cells from SNP induced apoptosis (photoreceptor cells [1]): protect photoreceptor cells from SNP induced apoptosis
Protection of photoreceptor cells from SNP induced apoptosis (photoreceptor cells [1]; listed as BP-3): inhibiting apoptosis; also recorded: better protection
Protection from light induced retinal damage (apoptosis of photoreceptors) (photoreceptor cells [4]): protects from the retinal damage observed
Protection from light induced retinal damage (apoptosis of photoreceptors) (photoreceptor cells [4]; listed as BP-3): protected
Protection from light induced cell death in the central retina (TUNEL positive cells, ONL) (photoreceptor cells [4]; at 24, 48 and 72 hours, 200 mg/kg, FIG. 8): approx 40%
Protection at 72 hours post light damage (photoreceptor cells [4]; second dose of 200 mg/kg at 24 hours post light damage): significant protection
Time to which protection extends (photoreceptor cells [4]; single injection of 200 mg/kg, post light damage): 48 h
Cone cells in the ONL (PNA staining) (photoreceptor cells [5]; alternate days from P18 to P25): more cone cells
Rhodopsin positive cells (rods) in the ONL compared to vehicle (photoreceptor cells [5]; alternate days from P18 to P25, immunofluorescent staining): more rhodopsin positive cells remain
Protection from photoreceptor cell death in the ONL (photoreceptor cells [5]; injected daily with 200 mg/kg, P18 to P25, 200 mg/kg): protection from photoreceptor cell death in the ONL; also recorded: areas of the retina are protected
Protection of retinal areas, alternate-day injection versus daily injection (photoreceptor cells [5]; injection on alternate days, all retinal areas): same level of protection as a daily injection regimen
Ganglion cell loss from the GCL (ganglion cells; [7]): significantly attenuates
IPL thinning (ganglion cells; [7]): significantly attenuates
Protection from NMDA-induced cell death (TUNEL positive cells, all retinal layers) (ganglion cells; 200 mg/kg I.P. 1 hour prior to NMDA injection, 4, 24, 48 and 72 hours): significantly protects retinal cells in all layers at all time points examined; also recorded: significant protection
Lipophilicity (P), rank order [2]: BP1<BP2<BP3=BP5=BP6<BP4
Stability of the compound [6]: far more stable than BP4

COc1cc2c(cc1OC(=O)c1ccccc1)CCC(C)(C)O2 [BP5]
Lipophilicity (P), rank order [2]: BP1<BP2<BP3=BP5=BP6<BP4

COc1cc2c(cc1OC(=O)c1ccccc1F)CCC(C)(C)O2 [BP6]
Lipophilicity (P), rank order [2]: BP1<BP2<BP3=BP5=BP6<BP4

COc1cc2c(cc1O)CCC(C)(C)O2 [BP, 3,4-dihydro-6-hydroxy-7-methoxy-2,2-dimethyl-1(2H)-benzopyran]
Protection of photoreceptor cells from SNP induced apoptosis at 25 μM (photoreceptor cells [1]; FIGS. 5 and 6): effective
Protection of photoreceptor cells from SNP induced apoptosis (photoreceptor cells [1]): protect photoreceptor cells from SNP induced apoptosis
